Assay results as given in patent publication US9695155B2, “Herbicidal substituted pyrimidinyloxy benzene compounds” (E. I. DU PONT DE NEMOURS AND COMPANY, priority 2013, dated 2017).

What was measured:
barnyardgrass [1] = test: Test A postemergence; format: in vivo, Echinochloa crus-galli
Procedure, shortened: (§1)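 Injury scores run from 0, no effect, to 100, complete control, judged by eye against untreated plants roughly 10 days after treatment. Chemicals carried a surfactant in a non-phytotoxic solvent and went onto loam–sand soil preemergence or onto one- to two-leaf seedlings postemergence.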

wheat = test: Test A postemergence; format: in vivo, Triticum aestivum
Procedure, shortened: as §1

rice = test: Test B flooded paddy test; format: in vivo, Oryza sativa; details: Flood, 250 g ai/ha; 0 to 100 scale where 0 is no effect and 100 is complete control
Procedure, shortened: (§2)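 Greenhouse flooded-pot test: compounds dosed into 3 cm standing water over 2-leaf plants, flood held constant. Rated visually after 13–15 days on 0–100 (complete control = 100); a dash marks no test result.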

sedge, umbrella = test: Test B flooded paddy test; format: in vivo, Cyperus difformis; details: Flood, 250 g ai/ha; 0 to 100 scale where 0 is no effect and 100 is complete control
Procedure, shortened: as §2

Heteranthera limosa = test: Test B flooded paddy test; format: in vivo; details: Flood, 250 g ai/ha; 0 to 100 scale where 0 is no effect and 100 is complete control
Procedure, shortened: as §2

barnyardgrass [2] = test: Test B flooded paddy test; format: in vivo, Echinochloa crus-galli; details: Flood, 250 g ai/ha; 0 to 100 scale where 0 is no effect and 100 is complete control
Procedure, shortened: as §2

wheat, winter = test: Test C postemergence; format: in vivo, Triticum aestivum
Procedure, shortened: (§3)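 Sown in loam/sand → sprayed pre-emergence; or grown to 1–4 leaves in peat mix → sprayed post-emergence. Same solvent/surfactant formulation both ways. Greenhouse 13–15 d. Score 0–100 visual.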

corn = test: Test C postemergence; format: in vivo, Zea mays
Procedure, shortened: as §3

giant foxtail = test: Test C postemergence; format: in vivo, Setaria faberii
Procedure, shortened: as §3

morningglory = test: Test C postemergence; format: in vivo, Ipomoea coccinea
Procedure, shortened: as §3

yellow nutsedge = test: Test C postemergence; format: in vivo, Cyperus esculentus
Procedure, shortened: as §3

ragweed = test: Test C postemergence; format: in vivo, Ambrosia elatior
Procedure, shortened: as §3

soybean = test: Test C postemergence; format: in vivo, Glycine max
Procedure, shortened: as §3

[3] = 125 g ai/ha, 0 to 100 scale, 0 no effect, 100 complete control
[4] = 500 g ai/ha, 0 to 100 scale where 0 is no effect and 100 is complete control
[5] = 16 g ai/ha, postemergence, 0 is no effect, 100 is complete control
[6] = 31 g ai/ha, postemergence, visual rating, scale 0 to 100 (0 no effect, 100 complete control), 13 to 15 days
[7] = 125 g ai/ha, postemergence, visual rating, scale 0 to 100 (0 no effect, 100 complete control)
[8] = Postemergence, 62 g ai/ha, scale 0 to 100 (0 no effect, 100 complete control), 13 to 15 days

## N#Cc1cnn(-c2c(Oc3ncc(F)cn3)cccc2C(F)F)c1 [Compound 240]
Barnyardgrass [1]; [3]
  Plant response rating, Barnyardgrass: 90
Barnyardgrass [1]; [4]
  Plant response rating, Barnyardgrass: 100
wheat; [3]
  Plant response rating, Wheat: 30
wheat; [4]
  Plant response rating, Wheat: 90
rice
  Plant response rating, Rice: 0
sedge, umbrella
  Plant response rating, Sedge, Umbrella: 30
Heteranthera limosa
  Plant response rating, Ducksalad: 50
Barnyardgrass [2]
  Plant response rating, Barnyardgrass: 0
wheat, winter; [5]
  Plant response rating (0 to 100), Wheat: 0
wheat, winter; [6]
  Wheat plant response rating: 0
wheat, winter; [7]
  Plant response rating, Wheat: 5
wheat, winter; [8]
  Plant response rating, Wheat: 5
corn; [5]
  Plant response rating (0 to 100), Corn: 0
corn; [6]
  Corn plant response rating: 5
corn; [7]
  Plant response rating, Corn: 15
corn; [8]
  Plant response rating, Corn: 5
Giant foxtail; [5]
  Plant response rating (0 to 100), Foxtail, Giant: 0
Giant foxtail; [6]
  Foxtail, Giant plant response rating: 35
Giant foxtail; [7]
  Plant response rating, Foxtail, Giant: 40
Giant foxtail; [8]
  Plant response rating, Foxtail, Giant: 20
morningglory; [5]
  Plant response rating (0 to 100), Morningglory: 30
morningglory; [6]
  Morningglory plant response rating: 65
morningglory; [7]
  Plant response rating, Morningglory: 90
morningglory; [8]
  Plant response rating, Morningglory: 75
Yellow nutsedge; [5]
  Plant response rating (0 to 100), Nutsedge, Yellow: 0
Yellow nutsedge; [6]
  Nutsedge, Yellow plant response rating: 0
Yellow nutsedge; [7]
  Plant response rating, Nutsedge, Yellow: 5
Yellow nutsedge; [8]
  Plant response rating, Nutsedge, Yellow: 0
ragweed; [5]
  Plant response rating (0 to 100), Ragweed: 35
ragweed; [6]
  Ragweed plant response rating: 40
ragweed; [7]
  Plant response rating, Ragweed: 75
ragweed; [8]
  Plant response rating, Ragweed: 55
soybean; [5]
  Plant response rating (0 to 100), Soybean: 30
soybean; [6]
  Soybean plant response rating: 40
soybean; [7]
  Plant response rating, Soybean: 75
soybean; [8]
  Plant response rating, Soybean: 60
